The results in this text go back to patent US20240101544A1, “INHIBITORS OF QPCTL AND QPCT” (priority 2022, published 2024).

Assay [1] addresses T1, QPCTL (Homo sapiens (Human), UniProt Q9NXS2). Description: QPCTL Enzymatic Activity Assay (coupled-enzyme fluorescent assay, H-Gln-AMC substrate). The format is biochemical. To be noted: recombinant truncated human QPCTL 10-12 nM, 10 μM H-Gln-AMC; read-out: QPCTL Inhibition IC50.
Target sequence in this assay (Q9NXS2 53-382): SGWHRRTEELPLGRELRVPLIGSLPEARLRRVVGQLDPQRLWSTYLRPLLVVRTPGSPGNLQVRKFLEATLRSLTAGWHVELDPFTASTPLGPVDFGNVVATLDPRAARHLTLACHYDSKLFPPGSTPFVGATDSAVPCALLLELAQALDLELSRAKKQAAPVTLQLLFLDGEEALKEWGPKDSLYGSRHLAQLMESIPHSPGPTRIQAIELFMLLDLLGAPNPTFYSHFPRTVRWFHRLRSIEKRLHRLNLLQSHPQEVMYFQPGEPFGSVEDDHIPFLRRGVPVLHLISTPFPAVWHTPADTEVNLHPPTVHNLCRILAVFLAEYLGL
Assay [2] has as its target QPCT (rhQPCT) (Homo sapiens (Human), UniProt Q16769). Briefly: QPCT Enzymatic Activity Assay (coupled-enzyme fluorescent assay, H-Gln-AMC substrate). The format is biochemical. To be noted: rhQPCT 10-12 nM, 10 μM H-Gln-AMC; read-out: QPCT Inhibition IC50. The method in brief:
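Coupled assay: recombinant human QPCT converts H-Gln-AMC (10 μM final) to pyroglutamyl-AMC, 60 min at 37 °C, stopped by boiling; PGPEP-1 then releases AMC.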

The target of assay [3] is T1, QPCTL. Description: Inhibition of Cellular QPCTL Activity - FACS flow cytometry, CC2C6 anti-CD47 staining of Ramos cells. To be noted: Ramos human Burkitts Lymphoma cells, 72-96 hours, % CC2C6-positive cells. It is filed as cell-based. As to the method:
Inhibition of Cellular QPCTL Activity—Fluorescence-Activated Cell Sorting (FACS) Flow Cytometry
The cells were incubated for 72-96 hours at 37° C. and 5% CO2. At the end of incubation period, cells were transferred to tubes and spun down at 1200 rpm for 5 minutes. […] After antibody staining, the cells were washed with FACS buffer then stained with SYTOX™ Blue dead cell stain at a dilution of 1:1000. Cells were analyzed on a BD FACS Melody and a positive staining gate on live cells was set using the 0.1% DMSO controls. […] Flow cytometry data were analyzed by FlowJo software and concentration-response-curves and IC50 values were generated using Collaborative Drug Discovery software.
Target sequence in this assay (Q9NXS2 whole entry, the tested form may be a part): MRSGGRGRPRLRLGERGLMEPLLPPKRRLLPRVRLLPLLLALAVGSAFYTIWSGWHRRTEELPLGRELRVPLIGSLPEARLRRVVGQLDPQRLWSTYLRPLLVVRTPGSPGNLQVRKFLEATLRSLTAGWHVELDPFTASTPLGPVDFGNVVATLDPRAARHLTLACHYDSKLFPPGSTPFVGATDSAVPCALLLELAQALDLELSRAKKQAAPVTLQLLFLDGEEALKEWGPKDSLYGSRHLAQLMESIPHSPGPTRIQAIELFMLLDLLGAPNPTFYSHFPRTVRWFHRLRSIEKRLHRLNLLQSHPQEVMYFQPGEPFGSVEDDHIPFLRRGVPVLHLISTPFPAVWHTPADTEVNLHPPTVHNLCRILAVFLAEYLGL

The target in assay [4] is T1, QPCTL. Description: Inhibition of Cellular QPCTL Activity - Imaging Assay, CC2C6 anti-CD47 staining of DLD-1 cells. It is filed as cell-based. To be noted: 72 hours, CC2C6 anti-CD47 high-content imaging. As to the method: Inhibition of Cellular QPCTL Activity—Imaging Assay
The cells were incubated for 72 hours at 37° C. and 5% CO2. […] After primary antibody staining, the cells were fixed with 4% paraformaldehyde in the incubation buffer for 15 minutes at room temperature. […] Cells were analyzed on a ImageXpress Pico Automated Cell Imaging System (Molecular Devices) using 10× objective (3×3 fields).
Target sequence in this assay (Q9NXS2 whole entry, the tested form may be a part): as above

QPCT (rhQPCT), sequence (Q16769 29-361): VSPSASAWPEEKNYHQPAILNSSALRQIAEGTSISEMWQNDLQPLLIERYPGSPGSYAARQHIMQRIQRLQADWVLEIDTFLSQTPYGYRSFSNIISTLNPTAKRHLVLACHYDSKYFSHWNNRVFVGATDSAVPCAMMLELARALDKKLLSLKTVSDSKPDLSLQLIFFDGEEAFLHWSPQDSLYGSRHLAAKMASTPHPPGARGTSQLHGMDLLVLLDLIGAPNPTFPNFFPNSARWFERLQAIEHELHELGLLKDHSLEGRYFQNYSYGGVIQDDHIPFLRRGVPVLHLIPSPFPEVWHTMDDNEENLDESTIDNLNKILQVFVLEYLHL

Broadly, the IC50 is the concentration at which inhibition is half-maximal. In the case of `Cn1cnnc1C1CCN(c2c(C#N)cccc2-c2cccnc2)CC1` [Example 2, 2-[4-(4-methyl-4H-1,2,4-triazol-3-yl)piperidin-1-yl]-3-(pyridin-3-yl)benzonitrile], the IC50 in assay [1] is below 100 nM; in assay [2] it was below 100 nM; in assay [3] it was 100 to 1000 nM.
For the compound `COc1ccncc1-c1cccc(C#N)c1N1CCC(c2nncn2C)CC1` [Example 3, 3-(4-methoxypyridin-3-yl)-2-[4-(4-methyl-4H-1,2,4-triazol-3-yl)piperidin-1-yl]benzonitrile], the IC50 in assay [1] is below 100 nM; in assay [2] it was below 100 nM; in assay [3] it was 100 to 1000 nM.
Take `Cn1cnnc1C1CCN(c2c(C#N)cccc2-c2cncc3c2cnn3C)CC1` [Example 4, 3-{1-methyl-1H-pyrazolo[3,4-c]pyridin-4-yl}-2-[4-(4-methyl-4H-1,2,4-triazol-3-yl)piperidin-1-yl]benzonitrile]: the IC50 in assay [1] fell in the range of 100 to 1000 nM; in assay [2], 100 to 1000 nM; in assay [3], 1000 to 10000 nM.
Consider `Cn1cnnc1C1CCN(c2c(C#N)cccc2-c2ccc(OCCO)nc2)CC1` [Example 6, 3-[6-(2-hydroxyethoxy)pyridin-3-yl]-2-[4-(4-methyl-4H-1,2,4-triazol-3-yl)piperidin-1-yl]benzonitrile], for which the IC50 is below 100 nM in assay [1], below 100 nM in assay [2] and 1000 to 10000 nM in assay [3].
Consider `CN(C)CCOc1ccncc1-c1cccc(C#N)c1N1CCC(c2nncn2C)CC1` [Example 8, 3-{4-[2-(dimethylamino)ethoxy]pyridin-3-yl}-2-[4-(4-methyl-4H-1,2,4-triazol-3-yl)piperidin-1-yl]benzonitrile], for which the figures for the IC50 in assay [1], in assay [2] and in assay [3] were below 100 nM, below 100 nM and 1000 to 10000 nM, respectively.
Consider `Cn1cnnc1C1CCN(c2c(C#N)cccc2-c2cnccc2OCCO)CC1` [Example 9, 3-[4-(2-hydroxyethoxy)pyridin-3-yl]-2-[4-(4-methyl-4H-1,2,4-triazol-3-yl)piperidin-1-yl]benzonitrile], for which the values for the IC50 in assay [1], in assay [2] and in assay [3] were below 100 nM, below 100 nM and 1000 to 10000 nM, respectively.
With `Cn1cnnc1C1CCN(c2c(C#N)cccc2-c2cnccc2Cl)CC1` [Example 10, 3-(4-chloropyridin-3-yl)-2-[4-(4-methyl-4H-1,2,4-triazol-3-yl)piperidin-1-yl]benzonitrile], the results for the IC50 in assay [1], in assay [2] and in assay [3] were below 100 nM, below 100 nM and 100 to 1000 nM, respectively.
Regarding `Cn1cnnc1C1CCN(c2c(C#N)cccc2-c2ccnnc2)CC1` [Example 11, 2-[4-(4-methyl-4H-1,2,4-triazol-3-yl)piperidin-1-yl]-3-(pyridazin-4-yl)benzonitrile], the IC50 in assay [1], in assay [2] and in assay [3] was below 100 nM throughout.
In the case of `Cn1cnnc1C1CCN(c2c(C#N)cccc2-c2cncc3c2ccn3C)CC1` [Example 12, 3-{1-methyl-1H-pyrrolo[2,3-c]pyridin-4-yl}-2-[4-(4-methyl-4H-1,2,4-triazol-3-yl)piperidin-1-yl]benzonitrile], the 50% inhibitory concentration (IC50) in assay [1] is below 100 nM; in assay [2], below 100 nM; in assay [3], 1000 to 10000 nM.
Regarding `Cn1cnnc1C1CCN(c2c(C#N)cccc2-c2ccc3ocnc3c2)CC1` [Example 15, 3-(1,3-benzoxazol-5-yl)-2-[4-(4-methyl-4H-1,2,4-triazol-3-yl)piperidin-1-yl]benzonitrile], the IC50 in assay [1] is 100 to 1000 nM; in assay [2], below 100 nM; in assay [3], 1000 to 10000 nM.
Turning to `Cn1cc2c(-c3cccc(C#N)c3N3CCC(c4nncn4C)CC3)cncc2n1` [Example 16, 3-{2-methyl-2H-pyrazolo[3,4-c]pyridin-4-yl}-2-[4-(4-methyl-4H-1,2,4-triazol-3-yl)piperidin-1-yl]benzonitrile], the values for the concentration for half-maximal inhibition (IC50) in assay [1], in assay [2] and in assay [3] were below 100 nM, below 100 nM and 100 to 1000 nM, respectively.
In the case of `Cn1cnnc1C1CCN(c2c(C#N)cccc2-c2ccc3nonc3c2)CC1` [Example 19, 3-(2,1,3-benzoxadiazol-5-yl)-2-[4-(4-methyl-4H-1,2,4-triazol-3-yl)piperidin-1-yl]benzonitrile], the IC50 was 100 to 1000 nM in assay [1], below 100 nM in assay [2] and 1000 to 10000 nM in assay [3].
As to `COc1ccc(-c2ccc(F)nc2)c(N2CCC(c3nncn3C)CC2)c1C#N` [Example 24, 3-(6-fluoropyridin-3-yl)-6-methoxy-2-[4-(4-methyl-4H-1,2,4-triazol-3-yl)piperidin-1-yl]benzonitrile], the half-maximal inhibitory concentration (IC50) in assay [1], in assay [2], in assay [3] and in assay [4] was below 100 nM in each case.
As for `COc1ccncc1-c1ccc(OC)c(C#N)c1N1CCC(c2nncn2C)CC1` [Example 25, 6-methoxy-3-(4-methoxypyridin-3-yl)-2-[4-(4-methyl-4H-1,2,4-triazol-3-yl)piperidin-1-yl]benzonitrile], the IC50 in assay [1] is below 100 nM; in assay [2] it was below 100 nM; in assay [3], 100 to 1000 nM; in assay [4], 1000 to 10000 nM.
Regarding `COc1ccc(-c2ccnnc2)c(N2CCC(c3nncn3C)CC2)c1C#N` [Example 26, 6-methoxy-2-[4-(4-methyl-4H-1,2,4-triazol-3-yl)piperidin-1-yl]-3-(pyridazin-4-yl)benzonitrile], the IC50 in assay [1], in assay [2] and in assay [3] was below 100 nM each time.
Turning to `COc1ccncc1-c1ccc(Cl)c(C#N)c1N1CCC(c2nncn2C)CC1` [Example 27, 6-chloro-3-(4-methoxypyridin-3-yl)-2-[4-(4-methyl-4H-1,2,4-triazol-3-yl)piperidin-1-yl]benzonitrile], the IC50 was below 100 nM in assay [1], below 100 nM in assay [2] and 100 to 1000 nM in assay [3].
`Cn1cnnc1C1CCN(c2c(-c3ccc(F)nc3)ccc(-c3ccccc3)c2C#N)CC1` [Example 28, 4-(6-fluoropyridin-3-yl)-3-[4-(4-methyl-4H-1,2,4-triazol-3-yl)piperidin-1-yl]-[1,1′-biphenyl]-2-carbonitrile]: the half-inhibitory concentration (IC50) in assay [1], in assay [2] and in assay [3] was below 100 nM throughout.
For the compound `Cn1cnnc1C1CCN(c2c(-c3ccc(F)nc3)ccc(Cl)c2C#N)CC1` [Example 30, 6-chloro-3-(6-fluoropyridin-3-yl)-2-[4-(4-methyl-4H-1,2,4-triazol-3-yl)piperidin-1-yl]benzonitrile], the IC50 in assay [1], in assay [2] and in assay [3] was below 100 nM in each case.
Consider `Cn1cnnc1C1CCN(c2c(-c3ccnnc3)ccc(Cl)c2C#N)CC1` [Example 33, 6-chloro-2-[4-(4-methyl-4H-1,2,4-triazol-3-yl)piperidin-1-yl]-3-(pyridazin-4-yl)benzonitrile], for which the IC50 in assay [1], in assay [2] and in assay [3] was below 100 nM in each case.
As to `Cn1cnnc1C1CCN(c2c(C#N)cccc2-c2cnc(=O)n(C)c2)CC1` [Example 34, 3-(1-methyl-2-oxo-1,2-dihydropyrimidin-5-yl)-2-[4-(4-methyl-4H-1,2,4-triazol-3-yl)piperidin-1-yl]benzonitrile], the IC50 in assay [1] is below 100 nM; in assay [2], below 100 nM; in assay [3], 1000 to 10000 nM; in assay [4] it was 100 to 1000 nM.
On to `Cn1cc(-c2ccc(-c3ccc(F)nc3)c(N3CCC(c4nncn4C)CC3)c2C#N)cn1` [Example 35, 3-(6-fluoropyridin-3-yl)-6-(1-methyl-1H-pyrazol-4-yl)-2-[4-(4-methyl-4H-1,2,4-triazol-3-yl)piperidin-1-yl]benzonitrile], for which the IC50 in assay [1], in assay [2], in assay [3] and in assay [4] was below 100 nM in each case.
In the case of `Cn1cc(-c2ccc(-c3ccnnc3)c(N3CCC(c4nncn4C)CC3)c2C#N)cn1` [Example 36, 6-(1-methyl-1H-pyrazol-4-yl)-2-[4-(4-methyl-4H-1,2,4-triazol-3-yl)piperidin-1-yl]-3-(pyridazin-4-yl)benzonitrile], the IC50 in assay [1], in assay [2] and in assay [3] was below 100 nM throughout.
With `CN(C)CCOc1ccc(-c2ccc(F)nc2)c(N2CCC(c3nncn3C)CC2)c1C#N` [Example 37, 6-[2-(dimethylamino)ethoxy]-3-(6-fluoropyridin-3-yl)-2-[4-(4-methyl-4H-1,2,4-triazol-3-yl)piperidin-1-yl]benzonitrile], the IC50 in assay [1], in assay [2] and in assay [3] was below 100 nM each time.
Consider `Cn1cnnc1C1CCN(c2c(C#N)ccc(F)c2-c2ccnnc2)CC1` [Example 39, 4-fluoro-2-[4-(4-methyl-4H-1,2,4-triazol-3-yl)piperidin-1-yl]-3-(pyridazin-4-yl)benzonitrile], for which the IC50 was below 100 nM in assay [1], below 100 nM in assay [2] and 100 to 1000 nM in assay [3].
